The target in one assay is 15-PGDH/HPGD (Homo sapiens (Human), UniProt P15428). Put plainly: hPGDH inhibitor screening biochemical assay. The note with it: read-out: hPGDH: Average IC50. In outline: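 Recombinant human 15-PGDH (10 nM) pre-incubated with compounds 10 min at 37 °C, then 15 μM PGE2 and 0.25 mM NAD+ added for 10 min at room temperature in 50 mM Tris-HCl pH 7.5, 0.01% Tween 20. NADH fluorescence read at ex/em 340/485 nm. IC50 from 10-point curves, four-parameter fit versus 1% DMSO.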

For another assay, the system named is A549 cells. As to the kind of experiment: A549 cell-based assay (PGE2 level). The procedure:
30,000 A549 cells per well were seeded into a tissue culture treated flat bottom 96 well plate, and incubated for 24 hours in a 37° C., […] incubator. After 24 hours of incubation, complete media were replaced with 100 μL of low serum (F12K+1% FBS) media and the plate was incubated for 24 hours in a 37° C., 5% CO2 incubator. After 24 hours of incubation, low serum media was replaced with 80 μL of complete medium (F12K+10% FBS) and 10 μL (10× concentration) of compounds were added and incubated at 37° C. for 30 minutes followed by stimulation of 10 μL (10× concentration) of IL-1b (Final concentration 0.25 ng/mL) overnight in a 37° C., […] incubator. After 24 hours of incubation, the supernatant was collected and the PGE2 level was detected by using Cisbio HTRF kit (Catalog #62P2APEH). Briefly, 5 μL of sample (100-Fold diluted) was dispensed into each sample well. 5 μL of each Prostaglandin E2 standard (Std 0-Std 7) was dispensed into each standard well. 2.5 μL of Prostaglandin E2-d2 working solution was added to all wells except negative controls and 2.5 μL of Anti-Prostaglandin E2-Eu3+ Cryptate working solution was added to all wells. […] After 5 hours of incubation, the plate sealer was removed and the plate was read on a HTRF® compatible reader. Delta F and PGE2 level were calculated as per kit instructions. % Fold change was calculated with respect to DMSO control wells.

For orientation: IC50 means the concentration that inhibits the measured activity by half.

Sequence of 15-PGDH/HPGD (P15428 whole entry): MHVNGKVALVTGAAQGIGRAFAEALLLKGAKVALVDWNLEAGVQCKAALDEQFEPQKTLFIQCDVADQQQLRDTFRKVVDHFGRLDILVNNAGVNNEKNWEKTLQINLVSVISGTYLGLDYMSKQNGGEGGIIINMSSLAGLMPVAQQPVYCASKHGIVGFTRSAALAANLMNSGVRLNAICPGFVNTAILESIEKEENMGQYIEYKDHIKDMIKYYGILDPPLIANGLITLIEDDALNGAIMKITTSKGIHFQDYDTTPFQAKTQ

With `N#Cc1ccc(-n2ccc3cc(C(=O)N4CCC(F)CC4)cnc32)cc1` [MF-DH-342], on 15-PGDH/HPGD, the concentration for half-maximal inhibition (IC50) was < 100 nM. For the same compound, in the assay on A549 cells, the “activity in the A549 cell-based assay (FIG. 1)” value is reported as “displayed activity”.

The record behind these values is patent US11345702B1 (Myoforte Therapeutics, Inc., priority 2020, dated 2022).
